Test results: patent publication US20240285727A1, “NOVEL THERAPEUTIC PEPTIDES FOR NEURODEGENERATION” (UNIVERSITY OF SOUTHERN CALIFORNIA, priority 2021, published 2024)

Test system: SHSY5Y
Experiment: Analogue screening assay, measured by MTT
Format: cell-based
Conditions: as a percentage compared to SHMOOSE (SHMOOSE activity as 100%)
Source text: FIG. 10 depicts an analogue screening assay, measured by MTT. Top: each bar represents a fragment (25-amino acid in length) of SHMOOSE. Bottom: each bar represents a phosphomimetic fragment (25-amino acid in length) of SHMOOSE. Cell model is SHSY5Y. The Inventors made 103 analogues/derivatives (see Table 1).
The Inventors made 103 analogues (Table 1). Referring to FIG. 10, in the top figure, each bar represents a 25-amino acid fragment of the SHMOOSE peptide. […] The sequence length of the analogue is 14 amino acids and 3 different analysis windows of the analogue, each having 11 amino acids, were characterized. […]

| Substance | % Efficacy [%] |
| --- | --- |
| 1 (MPPCLTTWLSQLLKDNSYPLVLGPK) [compound 1] | 62.23 |
| 2 (PPCLTTWLSQLLKDNSYPLVLGPKN) [compound 2] | 37.99 |
| 3 (PCLTTWLSQLLKDNSYPLVLGPKNF) [compound 3] | 115.35 |
| 4 (CLTTWLSQLLKDNSYPLVLGPKNFG) [compound 4] | 12.47 |
| 5 (LTTWLSQLLKDNSYPLVLGPKNFGA) [compound 5] | −13.61 |
| 6 (TTWLSQLLKDNSYPLVLGPKNFGAT) [compound 6] | −42.74 |
| 7 (TWLSQLLKDNSYPLVLGPKNFGATP) [compound 7] | −113.24 |
| 8 (WLSQLLKDNSYPLVLGPKNFGATPN) [compound 8] | −3.65 |
| 9 (LSQLLKDNSYPLVLGPKNFGATPNK) [compound 9] | −82.17 |
| 10 (SQLLKDNSYPLVLGPKNFGATPNKS) [compound 10] | −107.19 |
| 11 (QLLKDNSYPLVLGPKNFGATPNKSN) [compound 11] | −85.19 |
| 12 (LLKDNSYPLVLGPKNFGATPNKSNN) [compound 12] | −97.85 |
| 13 (LKDNSYPLVLGPKNFGATPNKSNNH) [compound 13] | −58.60 |
| 14 (KDNSYPLVLGPKNFGATPNKSNNHA) [compound 14] | −147.96 |
| 15 (DNSYPLVLGPKNFGATPNKSNNHAH) [compound 15] | 51.51 |
| 16 (NSYPLVLGPKNFGATPNKSNNHAHY) [compound 16] | −79.03 |
| 17 (SYPLVLGPKNFGATPNKSNNHAHYY) [compound 17] | −195.89 |
| 18 (YPLVLGPKNFGATPNKSNNHAHYYN) [compound 18] | −133.09 |
| 19 (PLVLGPKNFGATPNKSNNHAHYYNH) [compound 19] | −191.36 |
| 20 (LVLGPKNFGATPNKSNNHAHYYNHP) [compound 20] | −248.54 |
| 21 (VLGPKNFGATPNKSNNHAHYYNHPN) [compound 21] | −50.24 |
| 22 (LGPKNFGATPNKSNNHAHYYNHPNP) [compound 22] | −140.81 |
| 23 (GPKNFGATPNKSNNHAHYYNHPNPD) [compound 23] | −210.91 |
| 24 (PKNFGATPNKSNNHAHYYNHPNPDF) [compound 24] | −185.28 |

| Substance | % Efficacy [%] |
| --- | --- |
| 25 (KNFGATPNKSNNHAHYYNHPNPDFP) [compound 25] | −8.52 |
| 26 (NFGATPNKSNNHAHYYNHPNPDFPN) [compound 26] | −232.44 |
| 27 (FGATPNKSNNHAHYYNHPNPDFPNS) [compound 27] | −226.16 |
| 28 (GATPNKSNNHAHYYNHPNPDFPNSP) [compound 28] | −229.42 |
| 29 (ATPNKSNNHAHYYNHPNPDFPNSPH) [compound 29] | −262.37 |
| 30 (TPNKSNNHAHYYNHPNPDFPNSPHP) [compound 30] | −367.82 |
| 31 (PNKSNNHAHYYNHPNPDFPNSPHPY) [compound 31] | −477.36 |
| 32 (NKSNNHAHYYNHPNPDFPNSPHPYH) [compound 32] | −145.56 |
| 33 (KSNNHAHYYNHPNPDFPNSPHPYHP) [compound 33] | −119.66 |
| 34 (SNNHAHYYNHPNPDFPNSPHPYHPR) [compound 34] | −195.91 |
| 35 (GPKNFGATPNKSNNHAHYYNHPNPN) [compound 35] | 8.68 |
| 36 (PKNFGATPNKSNNHAHYYNHPNPNF) [compound 36] | −120.40 |
| 37 (KNFGATPNKSNNHAHYYNHPNPNFP) [compound 37] | −227.50 |
| 38 (NFGATPNKSNNHAHYYNHPNPNFPN) [compound 38] | −196.67 |
| 40 (GATPNKSNNHAHYYNHPNPNFPNSP) [compound 40] | −302.11 |
| 41 (ATPNKSNNHAHYYNHPNPNFPNSPH) [compound 41] | −188.45 |
| 42 (TPNKSNNHAHYYNHPNPNFPNSPHP) [compound 42] | −392.68 |
| 45 (KSNNHAHYYNHPNPNFPNSPHPYHP) [compound 45] | −292.14 |
| 46 (SNNHAHYYNHPNPNFPNSPHPYHPR) [compound 46] | −59.27 |
| 47 (MPPCLDDWLDQLLKDNDDPLVLGPK) [compound 47] | −150.17 |
| 48 (PPCLDDWLDQLLKDNDDPLVLGPKN) [compound 48] | −159.22 |
| 49 (PCLDDWLDQLLKDNDDPLVLGPKNF) [compound 49] | −168.90 |
| 50 (CLDDWLDQLLKDNDDPLVLGPKNFG) [compound 50] | −340.42 |
| 51 (LDDWLDQLLKDNDDPLVLGPKNFGA) [compound 51] | −132.69 |

| Substance | % Efficacy [%] |
| --- | --- |
| 52 (DDWLDQLLKDNDDPLVLGPKNFGAD) [compound 52] | −38.98 |
| 53 (DWLDQLLKDNDDPLVLGPKNFGADP) [compound 53] | −76.54 |
| 54 (WLDQLLKDNDDPLVLGPKNFGADPN) [compound 54] | −45.99 |
| 55 (LDQLLKDNDDPLVLGPKNFGADPNK) [compound 55] | −38.64 |
| 56 (DQLLKDNDDPLVLGPKNFGADPNKD) [compound 56] | −93.30 |
| 57 (QLLKDNDDPLVLGPKNFGADPNKDN) [compound 57] | −1.36 |
| 58 (LLKDNDDPLVLGPKNFGADPNKDNN) [compound 58] | −58.59 |
| 60 (KDNDDPLVLGPKNFGADPNKDNNHA) [compound 60] | −146.91 |
| 62 (NDDPLVLGPKNFGADPNKDNNHAHD) [compound 62] | −250.35 |
| 63 (DDPLVLGPKNFGADPNKDNNHAHDD) [compound 63] | −216.49 |
| 64 (DPLVLGPKNFGADPNKDNNHAHDDN) [compound 64] | −254.41 |
| 65 (PLVLGPKNFGADPNKDNNHAHDDNH) [compound 65] | −163.31 |
| 66 (LVLGPKNFGADPNKDNNHAHDDNHP) [compound 66] | −157.61 |
| 67 (VLGPKNFGADPNKDNNHAHDDNHPN) [compound 67] | −231.08 |
| 68 (LGPKNFGADPNKDNNHAHDDNHPNP) [compound 68] | −144.36 |
| 69 (GPKNFGADPNKDNNHAHDDNHPNPD) [compound 69] | −184.35 |
| 70 (PKNFGADPNKDNNHAHDDNHPNPDF) [compound 70] | −157.35 |
| 71 (KNFGADPNKDNNHAHDDNHPNPDFP) [compound 71] | −113.32 |
| 72 (NFGADPNKDNNHAHDDNHPNPDFPN) [compound 72] | −28.57 |
| 73 (FGADPNKDNNHAHDDNHPNPDFPND) [compound 73] | −306.02 |
| 74 (GADPNKDNNHAHDDNHPNPDFPNDP) [compound 74] | −228.29 |
| 75 (ADPNKDNNHAHDDNHPNPDFPNDPH) [compound 75] | −157.10 |
| 76 (DPNKDNNHAHDDNHPNPDFPNDPHP) [compound 76] | −184.63 |
| 78 (NKDNNHAHDDNHPNPDFPNDPHPDH) [compound 78] | −240.90 |

| Substance | % Efficacy [%] |
| --- | --- |
| 79 (KDNNHAHDDNHPNPDFPNDPHPDHP) [compound 79] | −183.31 |
| 80 (DNNHAHDDNHPNPDFPNDPHPDHPR) [compound 80] | −214.13 |
| 81 (GPKNFGADPNKDNNHAHDDNHPNPN) [compound 81] | −172.67 |
| 82 (PKNFGADPNKDNNHAHDDNHPNPNF) [compound 82] | −146.18 |
| 84 (NFGADPNKDNNHAHDDNHPNPNFPN) [compound 84] | −84.90 |
| 85 (FGADPNKDNNHAHDDNHPNPNFPND) [compound 85] | −476.83 |
| 86 (GADPNKDNNHAHDDNHPNPNFPNDP) [compound 86] | −62.75 |
| 88 (DPNKDNNHAHDDNHPNPNFPNDPHP) [compound 88] | −84.19 |
| 90 (NKDNNHAHDDNHPNPNFPNDPHPDH) [compound 90] | −226.81 |
| 91 (KDNNHAHDDNHPNPNFPNDPHPDHP) [compound 91] | −104.32 |
| 92 (DNNHAHDDNHPNPNFPNDPHPDHPR) [compound 92] | −85.47 |
| 97 (MPPCITTWLSQLLKDNSYPLVLGPKNFGATPNKSNNHAHYYNHPNPDFPNSPHPYHPR) [compound 97] | −1.709 |
| 98 (MPPCITTWISQLLKDNSYPLVLGPKNFGATPNKSNNHAHYYNHPNPDFPNSPHPYHPR) [compound 98] | 1.709 |
| 99 (MPPCITTWISQILKDNSYPLVLGPKNFGATPNKSNNHAHYYNHPNPDFPNSPHPYHPR) [compound 99] | −7.692 |
| 100 (MPPCITTWISQIIKDNSYPLVLGPKNFGATPNKSNNHAHYYNHPNPDFPNSPHPYHPR) [compound 100] | 4.274 |
| 101 (MPPCLTTWISQIIKDNSYPLVLGPKNFGATPNKSNNHAHYYNHPNPDFPNSPHPYHPR) [compound 101] | −10.26 |
| 102 (MPPCLTTWLSQIIKDNSYPLVLGPKNFGATPNKSNNHAHYYNHPNPDFPNSPHPYHPR) [compound 102] | −25.64 |
| 103 (MPPCLTTWLSQLIKDNSYPLVLGPKNFGATPNKSNNHAHYYNHPNPDFPNSPHPYHPR) [compound 103] | 86.32 |
| 104 (MPSCLTTWLSQLLKDNSYPLVLGPKNFGATPNKSNNHAHYYNHPNPDFPNSPHPYHPR) [compound 104] | 82.05 |
| 105 (MPSCLTTWLSSLLKDNSYPLVLGPKNFGATPNKSNNHAHYYNHPNPDFPNSPHPYHPR) [compound 105] | 44.44 |
| 106 (MPSCLTTWLSSLLSDNSYPLVLGPKNFGATPNKSNNHAHYYNHPNPDFPNSPHPYHPR) [compound 106] | −14.53 |
